Laboratory results published in the supplement of paper PMC10307832.

Tests used:
Assay in all cases: relative viability (nuclei count vs DMSO), 5 days (fraction); higher = more cells survive
VX-11e + Bortezomib = compound: CC1=CN=C(N=C1C2=CNC(=C2)C(=O)N[C@H](CO)C3=CC(=CC=C3)Cl)NC4=C(C=C(C=C4)F)Cl [VX-11e] + CC(C)C[C@H](NC(=O)[C@H](Cc1ccccc1)NC(=O)c1cnccn1)B(O)O [Bortezomib] (partner 0.002 µM)
How it was run: (§1)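 One day after seeding in 1536-well plates, lung cancer cell lines were dosed by pin tool. Dosing was either single-drug or a fixed anchor-drug dose plus five library-drug doses (not always all listed) in √10 steps. After 5 days, nuclei were stained in one fix-and-stain step and counted on 4× images, and relative viability is the nuclei count of treated wells over that of vehicle wells, given as the median of duplicate plates.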

VX-11e + Tozasertib = compound: CC1=CN=C(N=C1C2=CNC(=C2)C(=O)N[C@H](CO)C3=CC(=CC=C3)Cl)NC4=C(C=C(C=C4)F)Cl [VX-11e] + Cc1cc(Nc2cc(N3CCN(C)CC3)nc(Sc3ccc(NC(=O)C4CC4)cc3)n2)n[nH]1 [Tozasertib] (partner 0.1 µM)
How it was run: as §1

VX-11e + AZD7762 = compound: CC1=CN=C(N=C1C2=CNC(=C2)C(=O)N[C@H](CO)C3=CC(=CC=C3)Cl)NC4=C(C=C(C=C4)F)Cl [VX-11e] + NC(=O)Nc1cc(-c2cccc(F)c2)sc1C(=O)N[C@H]1CCCNC1 [AZD7762] (partner 0.2 µM)
How it was run: as §1

VX-11e + Decitabine = compound: CC1=CN=C(N=C1C2=CNC(=C2)C(=O)N[C@H](CO)C3=CC(=CC=C3)Cl)NC4=C(C=C(C=C4)F)Cl [VX-11e] + Nc1ncn([C@H]2C[C@H](O)[C@@H](CO)O2)c(=O)n1 [Decitabine] (partner 2 µM)
How it was run: as §1

Row | Cell Line | relative viability (VX-11e + Bortezomib; first compound 0.04 µM) | relative viability (VX-11e + Bortezomib; first compound 0.1265 µM) | relative viability (VX-11e + Bortezomib; first compound 0.4 µM) | relative viability (VX-11e + Bortezomib; first compound 1.265 µM) | relative viability (VX-11e + Bortezomib; first compound 4 µM) | relative viability (VX-11e + Tozasertib; first compound 0.04 µM) | relative viability (VX-11e + Tozasertib; first compound 0.1265 µM) | relative viability (VX-11e + Tozasertib; first compound 0.4 µM) | relative viability (VX-11e + Tozasertib; first compound 1.265 µM) | relative viability (VX-11e + Tozasertib; first compound 4 µM) | relative viability (VX-11e + AZD7762; first compound 0.04 µM) | relative viability (VX-11e + AZD7762; first compound 0.1265 µM) | relative viability (VX-11e + AZD7762; first compound 0.4 µM) | relative viability (VX-11e + AZD7762; first compound 1.265 µM) | relative viability (VX-11e + AZD7762; first compound 4 µM) | relative viability (VX-11e + Decitabine; first compound 0.04 µM) | relative viability (VX-11e + Decitabine; first compound 0.1265 µM) | relative viability (VX-11e + Decitabine; first compound 0.4 µM) | relative viability (VX-11e + Decitabine; first compound 1.265 µM) | relative viability (VX-11e + Decitabine; first compound 4 µM)
1 | HCC-44 | 0.913 | 0.912 | 0.857 | 0.646 | 0.453 | 0.975 | 0.863 | 0.182 | 0.396 | 0.549 | 1.03 | 0.904 | 1.01 | 1.07 | 1.13 | 0.995 | 0.896 | 0.939 | 0.904 | 1.06
2 | IA-LM | 0.959 | 0.941 | 0.927 | 0.306 | 0.105 |  |  |  |  |  |  |  |  |  |  |  |  |  |  | 
3 | NCI-H1734 | 0.965 | 0.826 | 0.726 | 0.513 | 0.365 | 0.289 | 0.209 | 0.234 | 0.23 | 0.192 | 0.525 | 0.532 | 0.307 | 0.334 | 0.296 | 0.482 | 0.523 | 0.428 | 0.538 | 0.368
4 | NCI-H358 |  |  |  |  |  | 0.113 | 0.0919 | 0.102 | 0.096 | 0.0812 | 0.594 | 0.499 |  | 0.445 | 0.228 | 0.232 | 0.203 | 0.124 | 0.222 | 0.142
5 | COR-L23 | 1.29 | 0.967 | 1.12 | 0.667 | 0.348 | 0.157 | 0.142 | 0.138 | 0.124 | 0.127 |  |  |  |  |  | 0.374 | 0.417 | 0.396 | 0.426 | 0.276
6 | NCI-H1648 |  |  |  |  |  | 0.515 | 0.378 | 0.566 | 0.292 | 0.318 |  | 0.639 | 0.641 | 0.703 | 0.733 |  | 0.584 | 0.491 | 0.654 | 0.42
7 | NCI-H520 | 0.621 | 0.49 | 0.636 | 0.486 | 0.474 | 0.464 | 0.401 | 0.397 | 0.468 | 0.4 |  |  |  |  |  | 0.539 | 0.533 | 0.492 | 0.668 | 0.476
8 | SW 900 |  |  |  |  |  | 0.737 | 0.401 | 0.409 | 0.307 | 0.258 | 0.439 | 0.529 |  | 0.265 | 0.411 | 0.443 | 0.491 |  | 0.529 | 0.455
9 | NCI-H661 | 0.791 | 0.899 | 0.819 | 0.683 | 0.583 | 0.323 | 0.354 | 0.349 | 0.382 | 0.379 |  |  |  |  |  | 0.514 | 0.491 | 0.502 | 0.52 | 0.432
10 | CAL-12T |  |  | 0.91 | 0.715 | 0.509 | 0.384 | 0.25 | 0.26 | 0.247 | 0.155 | 0.639 | 0.641 | 0.575 | 0.533 | 0.544 |  |  |  |  | 
11 | NCI-H2023 | 0.993 | 1.03 | 0.098 | 0.394 | 0.418 | 0.279 | 0.161 | 0.161 | 0.142 | 0.0967 |  |  |  |  |  | 0.207 | 0.222 | 0.222 | 0.256 | 0.228
12 | NCI-H2170 |  |  |  |  |  | 0.81 | 0.687 | 0.734 | 0.69 | 0.686 | 0.758 | 0.89 | 0.298 | 0.632 | 0.821 | 0.477 | 0.442 | 0.516 | 0.541 | 0.547
13 | NCI-H1650 | 0.192 | 0.198 | 0.235 | 0.199 | 0.195 | 0.426 | 0.309 |  | 0.261 | 0.203 |  |  |  |  |  | 0.523 | 0.406 | 0.468 | 0.522 | 0.526
14 | NCI-H1944 |  |  |  |  |  | 0.224 | 0.227 |  | 0.231 | 0.171 | 0.513 | 0.522 | 0.255 | 0.449 | 0.37 | 0.461 | 0.509 | 0.412 | 0.41 | 0.374
15 | SK-MES-1 |  |  |  |  |  | 0.884 | 0.873 | 0.844 | 0.908 | 0.376 |  |  |  |  |  | 0.341 | 0.384 | 0.363 | 0.4 | 0.272
16 | NCI-H522 |  |  |  |  |  | 0.532 | 0.56 | 0.553 | 0.467 | 0.503 | 0.812 | 0.969 | 0.82 | 0.671 | 0.671 | 0.641 | 0.648 | 0.648 | 0.599 | 0.573
17 | A549 |  |  |  |  |  |  |  |  |  |  |  |  |  |  |  |  | 0.264 | 0.0929 | 0.249 | 0.202
18 | LK-2 |  |  |  |  |  | 0.148 | 0.182 | 0.22 | 0.185 | 0.159 | 0.299 | 0.388 | 0.326 | 0.316 | 0.294 | 0.179 | 0.33 | 0.177 | 0.208 | 0.207
19 | NCI-H1299 | 0.987 | 0.978 | 0.978 | 1.05 | 0.556 |  |  |  |  |  |  |  |  |  |  |  |  |  |  | 
20 | COR-L 105 | 0.814 | 0.826 | 0.6 | 0.338 | 0.226 | 0.341 | 0.342 | 0.367 | 0.721 | 0.268 |  |  |  |  |  | 0.685 | 0.701 | 0.712 | 0.705 | 0.333
21 | Calu-6 | 1.08 | 1.04 | 1.03 | 0.333 | 0.206 |  |  |  |  |  |  |  |  |  |  |  |  |  |  | 
22 | NCI-H1792 | 1.01 | 0.912 | 0.94 | 0.876 | 0.686 |  |  |  |  |  |  | 0.623 |  | 0.413 | 0.0597 |  | 0.493 |  | 0.619 | 0.328
23 | NCI-H1563 | 0.884 | 0.734 | 0.637 | 0.739 | 0.747 |  |  |  |  |  |  |  |  |  |  |  |  |  |  | 
24 | NCI-H2228 | 1.18 | 1.18 | 0.221 | 0.681 | 0.284 | 0.248 | 0.202 |  | 0.149 | 0.115 |  |  |  |  |  |  |  |  |  | 
25 | UMC-11 | 0.562 | 0.668 | 0.714 | 0.598 | 0.551 | 0.185 | 0.201 | 0.206 | 0.182 | 0.19 |  |  |  |  |  |  | 0.495 | 0.472 | 0.454 | 0.594
